Measurements published in patent US20240360177A1, “PEPTIDES WITH ANTIMICROBIAL ACTIVITIES” (priority 2021, published 2024).
Converted amounts (≈) assume the structure as drawn. Like-named read-outs stand apart in the source and are kept apart here. Starred links: 1 amine or outer side, 2 acyl side, 3 side chain; linkers in the order of their positions; H or OH if unused. Non-standard residues stand in square brackets, D forms with d. Residues, ends and D or L forms follow the SMILES beside them. NH(CH2)9CO = O=C(CCCCCCCCCN[*:1])[*:2]; Aoc = NCCCCCCCC(=O)O; βAla = NCCC(=O)O

Experiments:
C. albicans = settings: 24 h
C. glabrata = settings: 24 h
C. parapsilosis = settings: 24 h
C. krusei = settings: 24 h
C. auris = settings: 24 h
C. tropicalis = settings: 24 h
C. dubliniensis = settings: 24 h
C. neoformans = settings: 72 h
C. gattii = settings: 72 h
Coccidioides species = settings: N = 3 strains; 48-72 hrs; >50% inhibition
in vitro = settings: human
[1] = Acute toxicity in CD-1 mice; settings: both sexes, mouse, in vivo
Experimental: Acute toxicity and subacute toxicity of ACPs were tested in CD-1 mice. In the acute toxicity study, groups of CD-1 male or female mice were administered single intravenous or intraperitoneal escalating doses (n=2-3 per dose) of the peptides dissolved in normal saline for injection or in phosphate buffered saline. The intravenous dose was administered via tail vein with a slow push over 15-20 seconds. Doses were escalated based on tolerability.

[2] = tested on: Staphylococcus aureus ATCC 29213; assay type: cell-based
[3] = tested on: Escherichia coli ATCC 25922; assay type: cell-based
[4] = tested on: Pseudomonas aeruginosa ATCC 27853; assay type: cell-based
[5] = EC50 cytotoxicity in HepG2, intracellular ATP assay
[6] = single IP dose, read-out: Tolerated single intraperitoneal dose
[7] = single IV dose via tail vein, read-out: Tolerated single intravenous dose

Row | Compound | MIC Range Paecilomyces variotii (Paecilomyces variotii; N = 1 strain, 48 hrs) [µg/mL] | MIC C. albicans (C. albicans) [µg/mL] | MIC C. glabrata (C. glabrata) [µg/mL] | MIC C. parapsilosis (C. parapsilosis) [µg/mL] | MIC C. krusei (C. krusei) [µg/mL] | MIC C. auris (C. auris) [µg/mL] | MIC C. tropicalis (C. tropicalis) [µg/mL] | MIC C. dubliniensis (C. dubliniensis) [µg/mL] | MIC C. neoformans (C. neoformans) [µg/mL] | MIC C. gattii (C. gattii) [µg/mL] | MIC Range Coccidioides species (Coccidioides species) [µg/mL] | MIC Range Fusarium spp. (Fusarium spp.; 48 h) [µg/mL] | MIC Range Scedosporium spp. (Scedosporium spp.; 72 h) [µg/mL] | MIC Range Lomentospora prolificans (Lomentospora prolificans) [µg/mL] | MIC Range Rhizopus arrhizus (Rhizopus arrhizus; 24 h) [µg/mL] | MIC Range Paecilomyces variotii (Paecilomyces variotii; 48 h) [µg/mL] | EC50 (in vitro; [5]) [µg/mL] | MTD [1, 6] [mg/kg] | MTD [1, 7] [mg/kg] | further results
1 | CC[C@@H]([C@H](C)O)n1ncn(-c2ccc(N3CCN(c4ccc(OC[C@@H]5CO[C@@](Cn6cncn6)(c6ccc(F)cc6F)C5)cc4)CC3)cc2)c1=O [POS, posaconazole, reference compound] | ≤0.03 | – | – | – | – | – | – | – | – | – | – | – | – | – | – | – | – | – | – | MIC Range Rhizopus arrhizus (Rhizopus arrhizus; N = 3 strains, 24 hrs): 0.12 to 0.25 µg/mL
2 | N=C(N)NCCC[C@@H](N)C(=O)N[C@@H](CCCNC(=N)N)C(=O)N[C@H](CCCNC(=N)N)C(=O)NCC(=O)N[C@H](CCCNC(=N)N)C(=O)N[C@@H](CCCNC(=N)N)C(=O)N[C@H](CCCNC(=N)N)C(=O)NCC(=O)N[C@H](CCCNC(=N)N)C(=O)N[C@@H](CCCNC(=N)N)C(=O)N[C@H](CCCNC(=N)N)C(=O)N[C@@H](CCCNC(=N)N)C(=O)NCC(=O)N[C@H](CCCNC(=N)N)C(=O)N[C@@H](CCCNC(=N)N)C(=O)N[C@H](CCCNC(=N)N)C(=O)N[C@@H](CCCNC(=N)N)C(=O)O [SEQ ID NO: 3, rRr-G-rRr-G-rRrR-G-rRrR] (H-[dR]R[dR]G[dR]R[dR]G[dR]R[dR]RG[dR]R[dR]R-OH) | – | 0.5 (≈ 0.21 µM) | 0.25 (≈ 0.105 µM) | 0.25 (≈ 0.105 µM) | 1 (≈ 0.421 µM) | 4 (≈ 1.68 µM) | 0.25 (≈ 0.105 µM) | 0.25 (≈ 0.105 µM) | 0.5 (≈ 0.21 µM) | 0.5 (≈ 0.21 µM) | 0.25 to 0.5 | 0.12 to 0.5 | ≤0.12 | ≤0.12 | 1 to 8 | 0.25 (≈ 0.105 µM) | > 300 | – | – | MIC50 against Candida spp. (Candida spp.): 0.5 µg/mL (≈ 0.21 µM); MIC90 against Candida spp. (Candida spp.): 4 µg/mL (≈ 1.68 µM); EC50 (in vitro; EC50 cytotoxicity in HepG2 cells (50% cell viability)): > 300 µg/mL
3 | N=C(N)NCCC[C@@H](N)C(=O)N[C@@H](CCCNC(=N)N)C(=O)N[C@H](CCCNC(=N)N)C(=O)NCC(=O)N[C@H](CCCNC(=N)N)C(=O)N[C@@H](CCCNC(=N)N)C(=O)N[C@H](CCCNC(=N)N)C(=O)NCC(=O)N[C@H](CCCNC(=N)N)C(=O)N[C@@H](CCCNC(=N)N)C(=O)N[C@H](CCCNC(=N)N)C(=O)N[C@@H](CCCNC(=N)N)C(=O)NCC(=O)N[C@H](CCCNC(=N)N)C(=O)N[C@@H](CCCNC(=N)N)C(=O)N[C@H](CCCNC(=N)N)C(=O)N[C@@H](CCCNC(=N)N)C(N)=O [SEQ ID NO: 4, rRr-G-rRr-G-rRrR-G-rRrR-NH2] (H-[dR]R[dR]G[dR]R[dR]G[dR]R[dR]RG[dR]R[dR]R-NH2) | – | 0.5 (≈ 0.211 µM) | 0.25 (≈ 0.105 µM) | 0.25 (≈ 0.105 µM) | 0.5 (≈ 0.211 µM) | 8 (≈ 3.37 µM) | 0.25 (≈ 0.105 µM) | 0.25 (≈ 0.105 µM) | 0.25 (≈ 0.105 µM) | 0.5 (≈ 0.211 µM) | 0.25 to 0.5 | 0.06 to 8 | ≤0.12 | ≤0.12 | 0.5 to 8 | 0.25 (≈ 0.105 µM) | > 300 | – | – | –
4 | N=C(N)NCCC[C@@H](N)C(=O)N[C@@H](CCCNC(=N)N)C(=O)N[C@H](CCCNC(=N)N)C(=O)NCCC(=O)N[C@H](CCCNC(=N)N)C(=O)N[C@@H](CCCNC(=N)N)C(=O)N[C@H](CCCNC(=N)N)C(=O)NCCC(=O)N[C@H](CCCNC(=N)N)C(=O)N[C@@H](CCCNC(=N)N)C(=O)N[C@H](CCCNC(=N)N)C(=O)N[C@@H](CCCNC(=N)N)C(=O)NCCC(=O)N[C@H](CCCNC(=N)N)C(=O)N[C@@H](CCCNC(=N)N)C(=O)N[C@H](CCCNC(=N)N)C(=O)N[C@@H](CCCNC(=N)N)C(=O)NCCCCCCCC(=O)O [SEQ ID NO: 16, rRr-(Apr)-rRr-(Apr)-rRrR-(Apr)-rRrR-(Aoa)] (H-[dR]R[dR][βAla][dR]R[dR][βAla][dR]R[dR]R[βAla][dR]R[dR]R[Aoc]-OH) | – | 1 (≈ 0.391 µM) | 0.5 (≈ 0.195 µM) | 0.5 (≈ 0.195 µM) | 0.5 (≈ 0.195 µM) | 0.5 (≈ 0.195 µM) | 0.5 (≈ 0.195 µM) | 0.5 (≈ 0.195 µM) | 0.5 (≈ 0.195 µM) | 0.25 (≈ 0.0977 µM) | 0.5 (≈ 0.195 µM) | 0.25 to 1 | – | 0.25 (≈ 0.0977 µM) | 2 to 64 | 0.25 (≈ 0.0977 µM) | > 300 | 10 to 15 | 5 to 7.5 | –
5 | N=C(N)NCCC[C@@H](N)C(=O)N[C@@H](CCCNC(=N)N)C(=O)N[C@H](CCCNC(=N)N)C(=O)NCCCCCCCCCC(=O)N[C@H](CCCNC(=N)N)C(=O)N[C@@H](CCCNC(=N)N)C(=O)N[C@H](CCCNC(=N)N)C(=O)NCCCCCCCC(=O)N[C@H](CCCNC(=N)N)C(=O)N[C@@H](CCCNC(=N)N)C(=O)N[C@H](CCCNC(=N)N)C(=O)N[C@@H](CCCNC(=N)N)C(=O)NCCCCCCCC(=O)N[C@H](CCCNC(=N)N)C(=O)N[C@@H](CCCNC(=N)N)C(=O)N[C@H](CCCNC(=N)N)C(=O)N[C@@H](CCCNC(=N)N)C(N)=O [SEQ ID NO: 33, rRr-(Ada)-rRr-(Aoa)-rRrR-(Aoa)-rRrR-NH2] (H-[dR]R[dR][NH(CH2)9CO][dR]R[dR][Aoc][dR]R[dR]R[Aoc][dR]R[dR]R-NH2) | – | 1 (≈ 0.377 µM) | 0.5 (≈ 0.188 µM) | 0.5 (≈ 0.188 µM) | 0.5 (≈ 0.188 µM) | 0.5 (≈ 0.188 µM) | 0.5 (≈ 0.188 µM) | 0.25 (≈ 0.0941 µM) | 0.25 (≈ 0.0941 µM) | 0.5 (≈ 0.188 µM) | – | 0.25 to 0.5 | 0.25 (≈ 0.0941 µM) | – | – | – | > 300 | 10 to 15 | 5 to 7.5 | MIC Staphylococcus aureus [2]: 16 µg/mL (≈ 6.03 µM); MIC Escherichia coli [3]: 16 µg/mL (≈ 6.03 µM); MIC Pseudomonas aeruginosa [4]: 32 µg/mL (≈ 12.1 µM)
6 | C[C@@H](c1ncncc1F)[C@](O)(Cn1cncn1)c1ccc(F)cc1F [VOR, voriconazole, reference compound] | 0.12 (≈ 0.344 µM) | – | – | – | – | – | – | – | – | – | – | – | – | – | – | – | – | – | – | MIC Range Fusarium spp. (Fusarium spp.; N = 3 strains, 48 hrs): 4 to 16 µg/mL; MIC Range Scedosporium spp. (Scedosporium spp.; N = 2 strains, 72 hrs): 1 to 2 µg/mL; MIC Range Lomentospora prolificans (Lomentospora prolificans; N = 1 strain): 16 µg/mL (≈ 45.8 µM)
